Experimental data from paper PMC12457209, “Jianpi‐Huogu Prescription Repairs Nontraumatic Osteonecrosis of the Femoral Head by Inhibiting NAMPT/STK11/HMGCR/ACAT1 Axis‐Mediated Lipid Production” (Journal of Cellular and Molecular Medicine, 2025).

Target: T1, NMNAT1 (Nicotinamide Nucleotide Adenylyl Transferase 1) (Homo sapiens, UniProt Q9HAN9)
T1 construct: amine-coupled to CM5 chip
Assay: SPR, Biacore T200, immobilised protein
Type: binding
Details: PBS, 5% DMSO, 0.5% P20, pH 7.4; compound 1.56 to 50 μM

T1 sequence (Q9HAN9 whole entry): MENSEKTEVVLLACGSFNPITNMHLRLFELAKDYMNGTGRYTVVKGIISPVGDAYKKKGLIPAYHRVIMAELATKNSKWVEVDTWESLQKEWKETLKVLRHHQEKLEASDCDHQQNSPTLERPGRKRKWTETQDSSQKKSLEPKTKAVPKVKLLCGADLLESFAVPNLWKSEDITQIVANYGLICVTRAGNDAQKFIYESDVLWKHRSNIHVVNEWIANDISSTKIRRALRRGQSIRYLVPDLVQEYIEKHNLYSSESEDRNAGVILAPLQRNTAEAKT

Compound | SPR, Biacore T200, immobilised protein
COc1cc(/C=C/C(=O)O)ccc1O [ferulic acid] | SPR analysis confirmed direct and specific binding of these compounds to NMNAT1
CCC/C=C1\OC(=O)C2=C1CC[C@@H](O)[C@H]2O [senkyunolide H] | SPR analysis confirmed direct and specific binding of these compounds to NMNAT1
Nc1nc2c(ncn2[C@@H]2O[C@H](CO)[C@@H](O)[C@H]2O)c(=O)[nH]1 [guanosine] | SPR analysis confirmed direct and specific binding of these compounds to NMNAT1
COc1cc(-c2cc(=O)c3c(O)c(O)c(OC)cc3o2)ccc1O [5,6,4′‐trihydroxy‐7,3′‐dimethoxyflavone] | SPR analysis confirmed direct and specific binding of these compounds to NMNAT1
